Like-named read-outs stand apart in the source and are kept apart here.
Target: human recombinant GPR65 (Homo sapiens, UniProt Q8IYL9)
Test: Human GPR65 cAMP HTRF antagonist assay
Type: cell-based
In short: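 1321N1 astrocytoma cells stably expressing hrGPR65, with IBMX and EDTA, were preincubated with compound 30 min at room temperature, then acid-activated at assay pH 7.2 (control pH 7.9) for 30 min. cAMP read by HTRF (665/620 nm ratio); IC50 from 4-parameter fit normalised to high/low controls.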

[1] = 1321N1-hrGPR65 cells, cAMP HTRF, assay pH 7.2, read-out: hGPR65 IC50 (Activity of selected compounds according to the invention)

Chain of human recombinant GPR65 (Q8IYL9 whole entry): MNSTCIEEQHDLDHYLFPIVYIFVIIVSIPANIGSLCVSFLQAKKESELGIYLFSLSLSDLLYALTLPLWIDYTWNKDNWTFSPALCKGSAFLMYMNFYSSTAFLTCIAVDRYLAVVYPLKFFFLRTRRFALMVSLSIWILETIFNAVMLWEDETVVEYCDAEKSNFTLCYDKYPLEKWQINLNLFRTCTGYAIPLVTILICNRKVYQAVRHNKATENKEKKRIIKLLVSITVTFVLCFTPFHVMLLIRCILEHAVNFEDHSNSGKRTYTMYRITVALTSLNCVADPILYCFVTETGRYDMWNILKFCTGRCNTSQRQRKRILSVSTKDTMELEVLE

SMILES	IC50 [nM]	IC50 [1] [nM]
COCCOc1ccc(-c2cc(F)c(NC(=O)N3[C@H]4CC[C@@H]3c3n[nH]c(=O)cc3C4)cc2Cl)cn1 [Compound 303, (6S,9R)-N-(5-Chloro-2-fluoro-4-(6-(2-methoxyethoxy)pyridin-3-yl)phenyl)-3-oxo-3,5,6,7,8,9-hexahydro-2H-6,9-epiminocyclohepta[c]pyridazine-10-carboxamide]	< 500	–
CN1C(=O)COc2ccc(-c3cc(F)c(NC(=O)N4[C@H]5CC[C@@H]4c4n[nH]c(=O)cc4C5)cc3Cl)cc21 [Compound 147, (6S,9R)-N-(5-Chloro-2-fluoro-4-(4-methyl-3-oxo-3,4-dihydro-2H-benzo[b][1,4]oxazin-6-yl)phenyl)-3-oxo-3,5,6,7,8,9-hexahydro-2H-6,9-epiminocyclohepta[c]pyridazine-10-carboxamide]	< 500	–
O=C(Nc1cc(Cl)c(-c2nnc(C(F)(F)F)s2)cc1F)N1[C@H]2CC[C@@H]1c1ccnc(F)c1C2 [Compound 65, (5R,8S)-N-(5-Chloro-2-fluoro-4-(5-(trifluoromethyl)-1,3,4-thiadiazol-2-yl)phenyl)-1-fluoro-6,7,8,9-tetrahydro-5H-5,8-epiminocyclohepta[c]pyridine-10-carboxamide]	< 500	–
O=C(Nc1cc(Cl)c(-c2ccc(C(F)(F)F)nc2)cc1F)N1[C@H]2CC[C@@H]1c1c[nH]c(=O)cc1C2 [Compound 312, (6S,9R)-N-(5-Chloro-2-fluoro-4-(6-(trifluoromethyl)pyridin-3-yl)phenyl)-3-oxo-3,5,6,7,8,9-hexahydro-2H-6,9-epiminocyclohepta[c]pyridine-10-carboxamide]	< 500	–
O=C(Nc1cc(Cl)c(-c2cnc(F)nc2)cc1F)N1[C@H]2CC[C@@H]1c1n[nH]c(=O)cc1C2 [Compound 178, (6S,9R)-N-(5-Chloro-2-fluoro-4-(2-fluoropyrimidin-5-yl)phenyl)-3-oxo-3,5,6,7,8,9-hexahydro-2H-6,9-epiminocyclohepta[c]pyridazine-10-carboxamide]	< 500	–
Cn1nnc2ccc(-c3cc(F)c(NC(=O)N4[C@H]5CC[C@@H]4c4n[nH]c(=O)cc4C5)cc3Cl)cc21 [Compound 141, (6S,9R)-N-(5-Chloro-2-fluoro-4-(1-methyl-1H-benzo[d][1,2,3]triazol-6-yl)phenyl)-3-oxo-3,5,6,7,8,9-hexahydro-2H-6,9-epiminocyclohepta[c]pyridazine-10-carboxamide]	< 500	–
N#Cc1cc(F)c(NC(=O)N2[C@H]3CC[C@@H]2c2n[nH]c(=O)cc2C3)cc1Cl [Compound 111, (6S,9R)-N-(5-Chloro-4-cyano-2-fluorophenyl)-3-oxo-3,5,6,7,8,9-hexahydro-2H-6,9-epiminocyclohepta[c]pyridazine-10-carboxamide]	< 500	–
CN1CCc2cc(-c3cc(F)c(NC(=O)N4[C@H]5CC[C@@H]4c4n[nH]c(=O)cc4C5)cc3Cl)ccc2C1=O [Compound 175, (6S,9R)-N-(5-Chloro-2-fluoro-4-(2-methyl-1-oxo-1,2,3,4-tetrahydroisoquinolin-6-yl)phenyl)-3-oxo-3,5,6,7,8,9-hexahydro-2H-6,9-epiminocyclohepta[c]pyridazine-10-carboxamide]	< 500	–
COc1nccc2c1C[C@@H]1CC[C@H]2N1C(=O)Nc1cc(Cl)c(Cl)cc1F [Compound 88, (5R,8S)-N-(4,5-Dichloro-2-fluorophenyl)-1-methoxy-6,7,8,9-tetrahydro-5H-5,8-epiminocyclohepta[c]pyridine-10-carboxamide]	–	500 to 5000
O=C(Nc1ccc(C(F)(F)F)c(Cl)c1)N1C2CCC1c1n[nH]c(=O)cc1C2 (racemic) [Compound 76, (±)-N-(3-Chloro-4-(trifluoromethyl)phenyl)-3-oxo-3,5,6,7,8,9-hexahydro-2H-6,9-epiminocyclohepta[c]pyridazine-10-carboxamide]	< 500	–
O=C(Nc1cc(Cl)c(-c2ccc3cncn3c2)cc1F)N1[C@H]2CC[C@@H]1c1n[nH]c(=O)cc1C2 [Compound 197, (6S,9R)-N-(5-Chloro-2-fluoro-4-(imidazo[1,5-a]pyridin-6-yl)phenyl)-3-oxo-3,5,6,7,8,9-hexahydro-2H-6,9-epiminocyclohepta[c]pyridazine-10-carboxamide]	< 500	–
O=C(Nc1ccc(OC2CCC2)c(Cl)c1)N1[C@H]2CC[C@@H]1c1ccnc(F)c1C2 [Compound 69, (5R,8S)-N-(3-Chloro-4-cyclobutoxyphenyl)-1-fluoro-6,7,8,9-tetrahydro-5H-5,8-epiminocyclohepta[c]pyridine-10-carboxamide]	< 500	–
COc1cnccc1-c1cc(F)c(NC(=O)N2[C@H]3CC[C@@H]2c2n[nH]c(=O)cc2C3)cc1Cl [Compound 299, (6S,9R)-N-(5-Chloro-2-fluoro-4-(3-methoxypyridin-4-yl)phenyl)-3-oxo-3,5,6,7,8,9-hexahydro-2H-6,9-epiminocyclohepta[c]pyridazine-10-carboxamide]	–	500 to 5000
COc1cncc(-c2cc(F)c(NC(=O)N3[C@H]4CC[C@@H]3c3ccnc(F)c3C4)cc2Cl)c1 [Compound 248, (5R,8S)-N-(5-Chloro-2-fluoro-4-(5-methoxypyridin-3-yl)phenyl)-1-fluoro-6,7,8,9-tetrahydro-5H-5,8-epiminocyclohepta[c]pyridine-10-carboxamide]	< 500	–
Cc1nc2cc(-c3cc(F)c(NC(=O)N4[C@H]5CC[C@@H]4c4c[nH]c(=O)cc4C5)cc3Cl)ccc2o1 [Compound 232, (6S,9R)-N-(5-Chloro-2-fluoro-4-(2-methylbenzo[d]oxazol-5-yl)phenyl)-3-oxo-3,5,6,7,8,9-hexahydro-2H-6,9-epiminocyclohepta[c]pyridine-10-carboxamide]	< 500	–
O=C(Nc1cc(Cl)c(-c2cncc(CF)c2)cc1F)N1[C@H]2CC[C@@H]1c1n[nH]c(=O)cc1C2 [Compound 311, (6S,9R)—N-(5-Chloro-2-fluoro-4-(5-(fluoromethyl)pyridin-3-yl)phenyl)-3-oxo-3,5,6,7,8,9-hexahydro-2H-6,9-epiminocyclohepta[c]pyridazine-10-carboxamide]	< 500	–
O=C(Nc1cc(Cl)c(-c2ccnc(OCC(F)(F)F)c2)cc1F)N1[C@H]2CC[C@@H]1c1n[nH]c(=O)cc1C2 [Compound 310, (6S,9R)-N-(5-Chloro-2-fluoro-4-(2-(2,2,2-trifluoroethoxy)pyridin-4-yl)phenyl)-3-oxo-3,5,6,7,8,9-hexahydro-2H-6,9-epiminocyclohepta[c]pyridazine-10-carboxamide]	< 500	–
O=C(Nc1ccc(Cl)c(Br)c1)N1C2CCC1c1n[nH]c(=O)cc1C2 (racemic) [Compound 5, (±)-N-(3-Bromo-4-chlorophenyl)-3-oxo-3,5,6,7,8,9-hexahydro-2H-6,9-epiminocyclohepta[c]pyridazine-10-carboxamide]	< 500	–
O=C(Nc1ccc(OC2CCC2)c(Cl)c1)N1C2CCC1c1n[nH]c(=O)cc1C2 (racemic) [Compound 14, (±)-N-(3-Chloro-4-cyclobutoxyphenyl)-3-oxo-3,5,6,7,8,9-hexahydro-2H-6,9-epiminocyclohepta[c]pyridazine-10-carboxamide]	–	500 to 5000
O=C(Nc1cc(Cl)c(-c2ccc3nonc3c2)cn1)N1[C@H]2CC[C@@H]1c1n[nH]c(=O)cc1C2 [Compound 238, (6S,9R)-N-(5-(Benzo[c][1,2,5]oxadiazol-5-yl)-4-chloropyridin-2-yl)-3-oxo-3,5,6,7,8,9-hexahydro-2H-6,9-epiminocyclohepta[c]pyridazine-10-carboxamide]	< 500	–
Cc1nnc(-c2cc(F)c(NC(=O)N3[C@H]4CC[C@@H]3c3ccnc(F)c3C4)cc2Cl)s1 [Compound 64, (5R,8S)-N-(5-Chloro-2-fluoro-4-(5-methyl-1,3,4-thiadiazol-2-yl)phenyl)-1-fluoro-6,7,8,9-tetrahydro-5H-5,8-epiminocyclohepta[c]pyridine-10-carboxamide]	< 500	–
Cn1ncc(-c2cc(F)c(NC(=O)N3[C@H]4CC[C@@H]3c3n[nH]c(=O)cc3C4)cc2Cl)n1 [Compound 139, (6S,9R)-N-(5-Chloro-2-fluoro-4-(2-methyl-2H-1,2,3-triazol-4-yl)phenyl)-3-oxo-3,5,6,7,8,9-hexahydro-2H-6,9-epiminocyclohepta[c]pyridazine-10-carboxamide]	< 500	–
O=C(Nc1cc(Cl)c(-c2cccc(CN3CCCC3)c2)cc1F)N1[C@H]2CC[C@@H]1c1n[nH]c(=O)cc1C2 [Compound 135, (6S,9R)-N-(2-Chloro-5-fluoro-3′-(pyrrolidin-1-ylmethyl)-[1,1′-biphenyl]-4-yl)-3-oxo-3,5,6,7,8,9-hexahydro-2H-6,9-epiminocyclohepta[c]pyridazine-10-carboxamide]	–	500 to 5000
O=C(Nc1cc(Br)c(Cl)cc1F)N1[C@H]2CC[C@@H]1c1n[nH]c(=O)cc1C2 [Compound 37, (6S,9R)-N-(5-Bromo-4-chloro-2-fluorophenyl)-3-oxo-3,5,6,7,8,9-hexahydro-2H-6,9-epiminocyclohepta[c]pyridazine-10-carboxamide]	< 500	–
CC(C)COc1ccc(-c2cc(F)c(NC(=O)N3[C@H]4CC[C@@H]3c3n[nH]c(=O)cc3C4)cc2Cl)cn1 [Compound 319, (6S,9R)-N-(5-Chloro-2-fluoro-4-(6-isobutoxypyridin-3-yl)phenyl)-3-oxo-3,5,6,7,8,9-hexahydro-2H-6,9-epiminocyclohepta[c]pyridazine-10-carboxamide]	< 500	–
O=C(Nc1ccc(Br)c(Cl)c1)N1[C@@H]2CC[C@H]1c1n[nH]c(=O)cc1C2 [Compound 40, (6R,9S)-N-(4-Bromo-3-chlorophenyl)-3-oxo-3,5,6,7,8,9-hexahydro-2H-6,9-epiminocyclohepta[c]pyridazine-10-carboxamide]	–	> 5000
O=C(Nc1cc(Cl)c(-c2ccnc3[nH]ccc23)cc1F)N1[C@H]2CC[C@@H]1c1n[nH]c(=O)cc1C2 [Compound 148, (6S,9R)-N-(5-Chloro-2-fluoro-4-(1H-pyrrolo[2,3-b]345yridine-4-yl)phenyl)-3-oxo-3,5,6,7,8,9-hexahydro-2H-6,9-epiminocyclohepta[c]pyridazine-10-carboxamide]	500 to 5000	–
